The values below are quoted from earlier work in patent US10392474B2, “Anionic linear polyglycerol derivatives, a method for manufacturing and applications” (FREIE UNIVERSITAET BERLIN, priority 2015, dated 2019).

The conditions of this data set: after subcutaneous administration.

The half-life is the time needed for the level to fall by half in the phase considered. For `CO[C@H]1O[C@H](COS(=O)(=O)O)[C@@H](O[C@@H]2O[C@@H](C(=O)O)[C@@H](O[C@H]3O[C@H](COS(=O)(=O)O)[C@@H](O[C@@H]4O[C@H](C(=O)O)[C@@H](O[C@H]5O[C@H](COS(=O)(=O)O)[C@@H](O)[C@H](O)[C@H]5NS(=O)(=O)O)[C@H](O)[C@H]4O)[C@H](OS(=O)(=O)O)[C@H]3NS(=O)(=O)O)[C@H](O)[C@H]2OS(=O)(=O)O)[C@H](O)[C@H]1NS(=O)(=O)O` [fondaparinux], the half-life is 17 h.
